# Measurements reported in patent US7259011B2, “Pluripotent adult stem cells” (priority 2004, dated 2007).
# Read-outs that look alike come from different tables or passages of the source.
# Test system: PPASCs
# Text: PPASCs were thawed or trypsinized from expansion cultures and plated at 20,000 cells per 16 mm well in 24-well gelatin-coated culture plates (Corning Glass Works, Corning, N.Y.). All wells contained EMEM and 10% pre-selected horse serum. The control group remained in this medium, while the experimental wells contained media supplemented with dexamethasone (Sigma). Dexamethasone used were logarithmic concentrations from 10^−10 to 10^−6 M. Cultures were fixed and assayed for phenotypes at one-week intervals up to five weeks.
# The immunohistochemical protocol typically used was adopted from Romero-Ramos et al. (2002)^3:
# 8) 0.25 ml of the primary antibody in PBS was added for 60 minutes at 37° C. • Antibodies used: Table 2
# 10) A second blocking step of 1% Goat Serum in PBS with 0.5% Tween was performed for 20 minutes preceding the addition of the secondary antibody. • 11) The cells received 0.25 ml of horse-radish peroxidase conjugated IgG secondary antibody that was diluted with PBS to a concentration of 1:1500 or secondary antibody conjugated with either FITC or TRITC fluorochrome. • 12) After 30 minutes of incubation at 37° C. with the secondary antibody, the wells were rinsed with PBS five times. If the secondary antibody was conjugated to fluorochrome, photographs were taken after this step. • 13) 0.25 ml of True Blue or DAB solution was added and light protected for up to 20 minutes. • 14) Five rinses of dH2O followed. • 15) Photographs were taken on an Olympus Inverted Scope Model IMT light microscope.
structure (smiles),measurement,setting,value
"C[C@@H]1C[C@H]2[C@@H]3CCC4=CC(=O)C=C[C@]4(C)[C@@]3(F)[C@@H](O)C[C@]2(C)[C@@]1(O)C(=O)CO [dex, dexamethasone]","concentration at which cells containing vesicles (Sudan Black B stained, adipocytes) were observed",,10^−9 to 10^−6 M
same,concentration at which induction of endothelial cells reproducibly occurred,,≥ 10^−8 M
same,concentration giving the highest quantity of hepatocytes,,10^−8 M
same,AFP stained cells (liver; α-fetoprotein),10^−6 M dex,+ (+ = 1–5 cells seen per culture well.)
same,CIICI stained cells (cartilage; type II collagen),10^−6 M dex,− (− = no stained cells seen per culture well.)
same,CNPase stained cells (glial cells),10^−6 M dex,− (− = no stained cells seen per culture well.)
same,CT3 stained cells (cardiac muscle; cardiac troponin T),10^−6 M dex,+ (+ = 1–5 cells seen per culture well.)
same,Desmin stained cells (myogenic precursor cells),10^−6 M dex,+ (+ = 1–5 cells seen per culture well.)
same,GFAP stained cells (astrocytes),10^−6 M dex,− (− = no stained cells seen per culture well.)
same,IA4 stained cells (smooth muscle; α-smooth muscle actin),10^−6 M dex,+ (+ = 1–5 cells seen per culture well.)
same,IL-1β stained cells,10^−6 M dex,+ (+ = 1–5 cells seen per culture well.)
same,"LDL uptake (fluorescent labeled acetylated low density lipoprotein, 20 min)",10^−6 M dex,++ (++ = 5–10 cells observed per culture well.)
same,MF-20 stained cells (skeletal muscle; heavy chain of myosin),10^−6 M dex,− (− = no stained cells seen per culture well.)
same,MPIII stained cells (bone; osteopontin),10^−6 M dex,− (− = no stained cells seen per culture well.)
same,P2B1 stained cells (endothelial cells),10^−6 M dex,++ (++ = 5–10 cells observed per culture well.)
same,P4A4 stained cells (endothelial cells),10^−6 M dex,+ (+ = 1–5 cells seen per culture well.)
same,Sudan Black B stained cells (fat),10^−6 M dex,++ (++ = 5–10 cells observed per culture well.)
same,Talin stained cells (fibroblasts),10^−6 M dex,− (− = no stained cells seen per culture well.)
same,Trop I stained cells (cardiac muscle; cardiac troponin I),10^−6 M dex,+ (+ = 1–5 cells seen per culture well.)
same,WVIDI stained cells (bone; bone sialoproteins I and II),10^−6 M dex,− (− = no stained cells seen per culture well.)
same,AFP stained cells (liver; α-fetoprotein),10^−7 M dex,++ (++ = 5–10 cells observed per culture well.)
same,CIICI stained cells (cartilage; type II collagen),10^−7 M dex,+ (+ = 1–5 cells seen per culture well.)
same,CNPase stained cells (glial cells),10^−7 M dex,− (− = no stained cells seen per culture well.)
same,CT3 stained cells (cardiac muscle; cardiac troponin T),10^−7 M dex,++ (++ = 5–10 cells observed per culture well.)
same,Desmin stained cells (myogenic precursor cells),10^−7 M dex,+ (+ = 1–5 cells seen per culture well.)
same,GFAP stained cells (astrocytes),10^−7 M dex,− (− = no stained cells seen per culture well.)
same,IA4 stained cells (smooth muscle; α-smooth muscle actin),10^−7 M dex,++ (++ = 5–10 cells observed per culture well.)
same,IL-1β stained cells,10^−7 M dex,+ (+ = 1–5 cells seen per culture well.)
same,"LDL uptake (fluorescent labeled acetylated low density lipoprotein, 20 min)",10^−7 M dex,++ (++ = 5–10 cells observed per culture well.)
same,MF-20 stained cells (skeletal muscle; heavy chain of myosin),10^−7 M dex,− (− = no stained cells seen per culture well.)
same,MPIII stained cells (bone; osteopontin),10^−7 M dex,+ (+ = 1–5 cells seen per culture well.)
same,P2B1 stained cells (endothelial cells),10^−7 M dex,+ (+ = 1–5 cells seen per culture well.)
same,P4A4 stained cells (endothelial cells),10^−7 M dex,+ (+ = 1–5 cells seen per culture well.)
same,Sudan Black B stained cells (fat),10^−7 M dex,++ (++ = 5–10 cells observed per culture well.)
same,Talin stained cells (fibroblasts),10^−7 M dex,++ (++ = 5–10 cells observed per culture well.)
same,Trop I stained cells (cardiac muscle; cardiac troponin I),10^−7 M dex,+ (+ = 1–5 cells seen per culture well.)
same,WVIDI stained cells (bone; bone sialoproteins I and II),10^−7 M dex,+ (+ = 1–5 cells seen per culture well.)
same,AFP stained cells (liver; α-fetoprotein),10^−8 M dex,+ (+ = 1–5 cells seen per culture well.)
same,CIICI stained cells (cartilage; type II collagen),10^−8 M dex,++ (++ = 5–10 cells observed per culture well.)
same,CNPase stained cells (glial cells),10^−8 M dex,+ (+ = 1–5 cells seen per culture well.)
same,CT3 stained cells (cardiac muscle; cardiac troponin T),10^−8 M dex,+ (+ = 1–5 cells seen per culture well.)
same,Desmin stained cells (myogenic precursor cells),10^−8 M dex,+ (+ = 1–5 cells seen per culture well.)
same,GFAP stained cells (astrocytes),10^−8 M dex,− (− = no stained cells seen per culture well.)
same,IA4 stained cells (smooth muscle; α-smooth muscle actin),10^−8 M dex,+ (+ = 1–5 cells seen per culture well.)
same,IL-1β stained cells,10^−8 M dex,+ (+ = 1–5 cells seen per culture well.)
same,"LDL uptake (fluorescent labeled acetylated low density lipoprotein, 20 min)",10^−8 M dex,+ (+ = 1–5 cells seen per culture well.)
same,MF-20 stained cells (skeletal muscle; heavy chain of myosin),10^−8 M dex,+ (+ = 1–5 cells seen per culture well.)
same,MPIII stained cells (bone; osteopontin),10^−8 M dex,+ (+ = 1–5 cells seen per culture well.)
same,P2B1 stained cells (endothelial cells),10^−8 M dex,− (− = no stained cells seen per culture well.)
same,P4A4 stained cells (endothelial cells),10^−8 M dex,+ (+ = 1–5 cells seen per culture well.)
same,Sudan Black B stained cells (fat),10^−8 M dex,+ (+ = 1–5 cells seen per culture well.)
same,Talin stained cells (fibroblasts),10^−8 M dex,++ (++ = 5–10 cells observed per culture well.)
same,Trop I stained cells (cardiac muscle; cardiac troponin I),10^−8 M dex,+ (+ = 1–5 cells seen per culture well.)
same,WVIDI stained cells (bone; bone sialoproteins I and II),10^−8 M dex,+ (+ = 1–5 cells seen per culture well.)
same,AFP stained cells (liver; α-fetoprotein),10^−9 M dex,+ (+ = 1–5 cells seen per culture well.)
same,CIICI stained cells (cartilage; type II collagen),10^−9 M dex,+ (+ = 1–5 cells seen per culture well.)
same,CNPase stained cells (glial cells),10^−9 M dex,++ (++ = 5–10 cells observed per culture well.)
same,CT3 stained cells (cardiac muscle; cardiac troponin T),10^−9 M dex,− (− = no stained cells seen per culture well.)
same,Desmin stained cells (myogenic precursor cells),10^−9 M dex,++ (++ = 5–10 cells observed per culture well.)
same,GFAP stained cells (astrocytes),10^−9 M dex,++ (++ = 5–10 cells observed per culture well.)
same,IA4 stained cells (smooth muscle; α-smooth muscle actin),10^−9 M dex,− (− = no stained cells seen per culture well.)
same,IL-1β stained cells,10^−9 M dex,− (− = no stained cells seen per culture well.)
same,"LDL uptake (fluorescent labeled acetylated low density lipoprotein, 20 min)",10^−9 M dex,− (− = no stained cells seen per culture well.)
same,MF-20 stained cells (skeletal muscle; heavy chain of myosin),10^−9 M dex,+ (+ = 1–5 cells seen per culture well.)
same,MPIII stained cells (bone; osteopontin),10^−9 M dex,+ (+ = 1–5 cells seen per culture well.)
same,P2B1 stained cells (endothelial cells),10^−9 M dex,− (− = no stained cells seen per culture well.)
same,P4A4 stained cells (endothelial cells),10^−9 M dex,− (− = no stained cells seen per culture well.)
same,Sudan Black B stained cells (fat),10^−9 M dex,− (− = no stained cells seen per culture well.)
same,Talin stained cells (fibroblasts),10^−9 M dex,+ (+ = 1–5 cells seen per culture well.)
same,Trop I stained cells (cardiac muscle; cardiac troponin I),10^−9 M dex,− (− = no stained cells seen per culture well.)
same,WVIDI stained cells (bone; bone sialoproteins I and II),10^−9 M dex,+ (+ = 1–5 cells seen per culture well.)
same,AFP stained cells (liver; α-fetoprotein),10^−10 M dex,− (− = no stained cells seen per culture well.)
same,CIICI stained cells (cartilage; type II collagen),10^−10 M dex,− (− = no stained cells seen per culture well.)
same,CNPase stained cells (glial cells),10^−10 M dex,++ (++ = 5–10 cells observed per culture well.)
same,CT3 stained cells (cardiac muscle; cardiac troponin T),10^−10 M dex,− (− = no stained cells seen per culture well.)
same,Desmin stained cells (myogenic precursor cells),10^−10 M dex,+ (+ = 1–5 cells seen per culture well.)
same,GFAP stained cells (astrocytes),10^−10 M dex,+ (+ = 1–5 cells seen per culture well.)
same,IA4 stained cells (smooth muscle; α-smooth muscle actin),10^−10 M dex,− (− = no stained cells seen per culture well.)
same,IL-1β stained cells,10^−10 M dex,− (− = no stained cells seen per culture well.)
same,"LDL uptake (fluorescent labeled acetylated low density lipoprotein, 20 min)",10^−10 M dex,− (− = no stained cells seen per culture well.)
same,MF-20 stained cells (skeletal muscle; heavy chain of myosin),10^−10 M dex,+ (+ = 1–5 cells seen per culture well.)
same,MPIII stained cells (bone; osteopontin),10^−10 M dex,+ (+ = 1–5 cells seen per culture well.)
same,P2B1 stained cells (endothelial cells),10^−10 M dex,− (− = no stained cells seen per culture well.)
same,P4A4 stained cells (endothelial cells),10^−10 M dex,− (− = no stained cells seen per culture well.)
same,Sudan Black B stained cells (fat),10^−10 M dex,− (− = no stained cells seen per culture well.)
same,Talin stained cells (fibroblasts),10^−10 M dex,− (− = no stained cells seen per culture well.)
same,Trop I stained cells (cardiac muscle; cardiac troponin I),10^−10 M dex,− (− = no stained cells seen per culture well.)
same,WVIDI stained cells (bone; bone sialoproteins I and II),10^−10 M dex,+ (+ = 1–5 cells seen per culture well.)
same,Von Kossa's stain of multilayered nodules (mineral),after 3 weeks of treatment,mineralized
same,Alcian blue pH 1.0 staining (cartilage),pH 1,sulfated proteoglycans were detected
